In brackets after ≈: the same amount, converted by molar mass.
Experiments:
[1] = test system: Mycobacterium tuberculosis; test: Antitubercular activity against Mycobacterium tuberculosis H37Rv assessed as bacterial growth inhibition at 1 uM incubated for 5 days by resazurin microtiter assay relative to control; type: functional; details: 120 h, time 5 day
[2] = test system: Mycobacterium tuberculosis; test: Antitubercular activity against Mycobacterium tuberculosis H37Rv assessed as bacterial growth inhibition at 10 uM incubated for 5 days by resazurin microtiter assay relative to control; type: functional; details: 120 h, time 5 day
[3] = test system: Mycobacterium tuberculosis; test: Antitubercular activity against Mycobacterium tuberculosis H37Rv assessed as bacterial growth inhibition incubated for 5 days by resazurin microtiter assay; type: functional; details: 120 h, time 5 day
[4] = test system: Mycobacterium tuberculosis; test: Antitubercular activity against Mycobacterium tuberculosis H37Rv by broth microdilution method; type: functional
[5] = biological target: Voltage-gated inwardly rectifying potassium channel KCNH2 (Homo sapiens, UniProt Q12809); test: Inhibition of fluorescently labelled tracer binding to human ERG by competitive binding assay
Chain of Voltage-gated inwardly rectifying potassium channel KCNH2 (Q12809 whole entry): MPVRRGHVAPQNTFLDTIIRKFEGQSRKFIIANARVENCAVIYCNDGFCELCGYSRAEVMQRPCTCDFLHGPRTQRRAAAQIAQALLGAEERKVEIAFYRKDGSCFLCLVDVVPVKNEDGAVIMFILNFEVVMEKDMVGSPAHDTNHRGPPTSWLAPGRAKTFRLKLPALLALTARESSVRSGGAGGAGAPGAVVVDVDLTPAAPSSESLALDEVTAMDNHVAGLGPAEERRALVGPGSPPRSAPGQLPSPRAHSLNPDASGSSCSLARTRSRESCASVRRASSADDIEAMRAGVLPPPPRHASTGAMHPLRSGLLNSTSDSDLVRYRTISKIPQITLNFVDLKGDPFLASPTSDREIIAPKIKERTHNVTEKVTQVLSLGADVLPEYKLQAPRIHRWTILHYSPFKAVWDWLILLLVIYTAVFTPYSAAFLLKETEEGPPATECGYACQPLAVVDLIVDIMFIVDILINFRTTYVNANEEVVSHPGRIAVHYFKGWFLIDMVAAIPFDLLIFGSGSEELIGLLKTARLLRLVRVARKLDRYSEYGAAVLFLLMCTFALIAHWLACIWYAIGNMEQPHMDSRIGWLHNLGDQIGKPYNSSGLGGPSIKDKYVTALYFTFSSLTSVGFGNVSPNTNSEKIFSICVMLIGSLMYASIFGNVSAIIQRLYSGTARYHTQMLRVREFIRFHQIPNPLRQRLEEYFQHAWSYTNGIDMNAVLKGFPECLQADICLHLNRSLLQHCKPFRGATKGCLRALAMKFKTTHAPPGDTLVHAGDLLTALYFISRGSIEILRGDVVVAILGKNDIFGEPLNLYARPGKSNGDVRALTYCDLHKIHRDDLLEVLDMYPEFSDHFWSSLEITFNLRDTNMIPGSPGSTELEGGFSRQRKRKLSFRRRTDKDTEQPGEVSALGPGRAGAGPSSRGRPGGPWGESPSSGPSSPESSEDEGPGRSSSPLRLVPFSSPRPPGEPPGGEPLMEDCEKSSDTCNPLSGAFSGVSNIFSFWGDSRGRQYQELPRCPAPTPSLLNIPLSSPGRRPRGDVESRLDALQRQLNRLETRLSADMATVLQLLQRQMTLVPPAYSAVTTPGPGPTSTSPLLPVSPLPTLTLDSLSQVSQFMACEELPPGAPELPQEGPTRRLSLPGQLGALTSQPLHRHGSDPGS

SMILES | inhibition at 1 µM [1] | inhibition at 10 µM [2] | MIC90 [3] | MIC90 [4] | EC50 [5]
COc1ncc(-c2ccc(F)cc2)cc1C(c1ccccc1)C(O)(CCN(C)C)c1cccc2ccccc12 (configuration not stated) | 100% | 100% | 0.8 µM (≈ 0.417 µg/mL) | – | –
CO[C@H]1/C=C/O[C@@]2(C)Oc3c(C)c(O)c4c(O)c(c(/C=N/N5CCN(C)CC5)c(O)c4c3C2=O)NC(=O)/C(C)=C\C=C\[C@H](C)[C@H](O)[C@@H](C)[C@@H](O)[C@@H](C)[C@H](OC(C)=O)[C@@H]1C [RIFAMPIN] | – | – | 0.006 µM (≈ 0.00494 µg/mL) | – | –
COc1ncc(-c2ccccc2C#N)cc1C(c1ccccc1)C(O)(CCN(C)C)c1cccc2ccccc12 (configuration not stated) | 0% | 90% | – | – | –
COc1ncc(-c2ccc(OC(F)(F)F)cc2)cc1C(c1ccccc1)C(O)(CCN(C)C)c1cccc2ccccc12 (configuration not stated) | 10% | 100% | 6.05 µM (≈ 3.55 µg/mL) | – | –
COc1ncc(-c2ccc(C)c(Cl)c2)cc1C(c1ccccc1)C(O)(CCN(C)C)c1cccc2ccccc12 (configuration not stated) | 5% | 100% | – | – | –
COc1nc(OC)c(C(c2ccccc2)C(O)(CCN(C)C)c2cccc3ccccc23)cc1-c1ccccc1 (configuration not stated) | – | – | 3.88 µM (≈ 2.07 µg/mL) | – | –
COc1ncc(-c2ccc(F)c(Cl)c2)cc1C(c1ccccc1)C(O)(CCN(C)C)c1cccc2ccccc12 (configuration not stated) | 0% | 100% | – | – | –
COc1nc(OC)c([C@H](c2ccccc2)[C@](O)(CCN(C)C)c2cccc3ccccc23)cc1-c1ccc(C#N)cc1 | – | – | 8 µM (≈ 4.46 µg/mL) | – | –
COc1ncc(-c2ccccc2OC(F)(F)F)cc1C(c1ccccc1)C(O)(CCN(C)C)c1cccc2ccccc12 (configuration not stated) | 0% | 100% | – | – | –
COc1ncc(-c2ccccc2Cl)cc1C(c1ccccc1)C(O)(CCN(C)C)c1cccc2ccccc12 (configuration not stated) | 0% | 100% | 4.52 µM (≈ 2.43 µg/mL) | – | –
COc1ncc(-c2cccc(F)c2)cc1C(c1ccccc1)C(O)(CCN(C)C)c1cccc2ccccc12 (configuration not stated) | 5% | 100% | 2.51 µM (≈ 1.31 µg/mL) | – | –
COc1ncc(-c2ccccc2F)cc1C(c1ccccc1)C(O)(CCN(C)C)c1cccc2ccccc12 (configuration not stated) | 0% | 100% | 2.6 µM (≈ 1.35 µg/mL) | – | –
COc1ncc(-c2cccc3ccccc23)cc1C(c1ccccc1)C(O)(CCN(C)C)c1cccc2ccccc12 (configuration not stated) | 5% | 100% | – | – | –
COc1ncc(-c2ccc(Cl)cc2)cc1C(c1ccccc1)C(O)(CCN(C)C)c1cccc2ccccc12 (configuration not stated) | 5% | 100% | 6.94 µM (≈ 3.73 µg/mL) | – | –
COc1nc(OC)c(C(c2ccccc2)C(O)(CCN(C)C)c2cccc3ccccc23)cc1-c1ccc(OC(F)(F)F)cc1 (configuration not stated) | – | – | 2.34 µM (≈ 1.44 µg/mL) | – | –
COc1ncc(-c2cccc(Cl)c2)cc1C(c1ccccc1)C(O)(CCN(C)C)c1cccc2ccccc12 (configuration not stated) | 5% | 100% | 7.94 µM (≈ 4.26 µg/mL) | – | –
COc1ncc(Br)cc1C(c1ccccc1)C(O)(CCN(C)C)c1cccc2ccccc12 (mixture of isomers) | – | – | > 10 µM | – | –

SMILES | inhibition at 1 µM [1] | inhibition at 10 µM [2] | MIC90 [3] | MIC90 [4] | EC50 [5]
COc1ncc(-c2ccccc2)cc1C(c1ccccc1)C(O)(CCN(C)C)c1cccc2ccccc12 (configuration not stated) | 10% | 100% | 5.51 µM (≈ 2.77 µg/mL) | – | –
COc1nc(OC)c(C(c2ccccc2)C(O)(CCN(C)C)c2cccc3ccccc23)cc1-c1ccc(F)cc1 (configuration not stated) | – | – | 2.41 µM (≈ 1.33 µg/mL) | – | –
COc1ncc(-c2ccc(C(F)(F)F)cc2)cc1C(c1ccccc1)C(O)(CCN(C)C)c1cccc2ccccc12 (configuration not stated) | 5% | 100% | 4.26 µM (≈ 2.43 µg/mL) | – | –
COc1ncc(-c2ccc(F)cc2C#N)cc1C(c1ccccc1)C(O)(CCN(C)C)c1cccc2ccccc12 (configuration not stated) | 0% | 100% | – | – | –
COc1ccc(-c2cc(C(c3ccccc3)C(O)(CCN(C)C)c3cccc4ccccc34)c(OC)nc2OC)cc1 (configuration not stated) | – | – | 3.94 µM (≈ 2.22 µg/mL) | – | –
COc1ncc(-c2ccc(F)cc2F)cc1C(c1ccccc1)C(O)(CCN(C)C)c1cccc2ccccc12 (configuration not stated) | 0% | 100% | – | – | –
COc1nc2ccc(Br)cc2cc1[C@@H](c1ccccc1)[C@@](O)(CCN(C)C)c1cccc2ccccc12 [BEDAQUILINE] | – | – | 0.35 µM (≈ 0.194 µg/mL) | 0.027 µM (≈ 0.015 µg/mL) | –
COc1ncc(-c2ccc(F)c(C)c2)cc1C(c1ccccc1)C(O)(CCN(C)C)c1cccc2ccccc12 (configuration not stated) | 5% | 100% | – | – | –
COc1ncc(-c2ccc(C(F)(F)F)cc2Cl)cc1C(c1ccccc1)C(O)(CCN(C)C)c1cccc2ccccc12 (configuration not stated) | 5% | 100% | – | – | –
COc1nc(OC)c(C(c2ccccc2)C(O)(CCN(C)C)c2cccc3ccccc23)cc1-c1ccc(Cl)cc1 (configuration not stated) | – | – | 3.44 µM (≈ 1.95 µg/mL) | – | –
COc1nc(OC)c(C(c2ccccc2)C(O)(CCN(C)C)c2cccc3ccccc23)cc1-c1ccc(C#N)cc1 (configuration not stated) | – | – | 1.24 µM (≈ 0.692 µg/mL) | – | –
COc1nc(OC)c([C@@H](c2ccccc2)[C@@](O)(CCN(C)C)c2cccc3ccccc23)cc1-c1ccc(C#N)cc1 | – | – | 1 µM (≈ 0.558 µg/mL) | – | 1520 nM
COc1ncc(-c2ccc(Cl)cc2Cl)cc1C(c1ccccc1)C(O)(CCN(C)C)c1cccc2ccccc12 (configuration not stated) | 0% | 100% | – | – | –
COc1ncc(-c2ccc(Cl)c(C(F)(F)F)c2)cc1C(c1ccccc1)C(O)(CCN(C)C)c1cccc2ccccc12 (configuration not stated) | 0% | 100% | – | – | –
COc1ncc(-c2ccc(Cl)c(Cl)c2)cc1C(c1ccccc1)C(O)(CCN(C)C)c1cccc2ccccc12 (configuration not stated) | 0% | 100% | – | – | –
COc1ncc(-c2ccc(C(C)(C)C)cc2)cc1C(c1ccccc1)C(O)(CCN(C)C)c1cccc2ccccc12 (configuration not stated) | 90% | 100% | 3.09 µM (≈ 1.73 µg/mL) | – | –
